By TGI is commonly meant the concentration giving total growth inhibition. Higher therefore signals less potent growth arrest. A word on the GI50: it is the concentration giving 50% growth inhibition.

Test systems include OVCAR-4 ovarian; MCF7 breast; COLO 205 colon; HL-60(TB) leukemia; HOP-92 NSCLC; KM12 colon; NCI-H226 lung; OVCAR-5 ovarian; EKVX NSCLC; TK-10 renal.
Holding throughout (experiment): DTP human tumour cell line panel, 48 h

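Protocol summary: plate cells (96-well), add compound at 5 concentrations, incubate 48 h, interpolate endpoints linearly. GI50 marks 50% less growth. At the TGI there is no net growth.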 Some results are limits rather than exact numbers.

In the case of `COC(=O)C(=O)C(C(=O)C(=O)Nc1ccccc1C(N)=O)c1nc2ccc(Cl)cc2[nH]c1=O` (centres undefined), the TGI with OVCAR-4 ovarian, in the assay on MCF7 breast, in the assay with COLO 205 colon, in the assay on HL-60(TB) leukemia, in the assay on HOP-92 NSCLC and in the assay on KM12 colon was greater than 100 µM throughout. Moreover, the TGI in the assay with NCI-H226 lung and with OVCAR-5 ovarian was greater than 100 µM each time.
Take `NC(N)=NCCCn1c2c(c3ccccc3c1=O)C(=O)c1ccccc1-2`: the GI50 in the assay on OVCAR-4 ovarian is 55.6 µM; in the assay with MCF7 breast, 7.27 µM; in the assay with COLO 205 colon, 21.2 µM; with HL-60(TB) leukemia, 23.9 µM; in the assay with EKVX NSCLC, 16.6 µM; with HOP-92 NSCLC, 3.2 µM. For the same compound, the GI50 with KM12 colon is 21.9 µM; in the assay on OVCAR-5 ovarian it was 25.7 µM; in the assay with TK-10 renal it was 29.5 µM. Also, the TGI is greater than 100 µM in the assay with OVCAR-4 ovarian; 25.1 µM with MCF7 breast; 79.7 µM in the assay with COLO 205 colon; 81.3 µM with HL-60(TB) leukemia; 58.5 µM in the assay on EKVX NSCLC; 47.5 µM in the assay on HOP-92 NSCLC. The TGI with KM12 colon amounted to 59.1 µM; in the assay on OVCAR-5 ovarian it was 94.6 µM; in the assay with TK-10 renal it was 98.3 µM.
In the case of `NC(=S)N/N=C/c1ccc(OC(=O)COc2ccc(Cl)cc2)cn1`, the GI50 with OVCAR-4 ovarian was 5.87 µM; in the assay on MCF7 breast it was 3.71 µM; with COLO 205 colon, 31.8 µM; in the assay with HL-60(TB) leukemia, 0.954 µM; in the assay with EKVX NSCLC, 30.9 µM; with KM12 colon, 3.18 µM. Further, the figures for the GI50 with NCI-H226 lung, in the assay on OVCAR-5 ovarian and in the assay on TK-10 renal were 13.4 µM, 41.6 µM and 30 µM, respectively. Besides, the TGI in the assay on OVCAR-4 ovarian is greater than 100 µM; with MCF7 breast it was greater than 100 µM; with COLO 205 colon, greater than 100 µM; in the assay on HL-60(TB) leukemia, 20.8 µM; in the assay with EKVX NSCLC, greater than 100 µM; with KM12 colon, greater than 100 µM. Besides, the TGI is 48.9 µM with NCI-H226 lung, greater than 100 µM in the assay on OVCAR-5 ovarian and greater than 100 µM in the assay on TK-10 renal.
As to `COc1cc(C2=NN(C(C)=O)C(c3ccc(OC(C)=O)cc3OC(C)=O)O2)c(OC(C)=O)c2ccccc12` (centres undefined), the GI50 in the assay on OVCAR-4 ovarian is 0.306 µM; in the assay with MCF7 breast, 2.73 µM; in the assay on COLO 205 colon it was 2.58 µM; in the assay with HL-60(TB) leukemia, 0.671 µM; with HOP-92 NSCLC, 2.07 µM; with KM12 colon, 1.02 µM. The GI50 is 1.15 µM with NCI-H226 lung, 5.64 µM with OVCAR-5 ovarian and 1.31 µM with TK-10 renal. Also, the TGI turned out to be 8.64 µM in the assay with OVCAR-4 ovarian; 16.1 µM with MCF7 breast; 10.1 µM in the assay with COLO 205 colon; 2.94 µM in the assay with HL-60(TB) leukemia; 30.7 µM in the assay on HOP-92 NSCLC; 27.3 µM in the assay with KM12 colon. The figures for the TGI in the assay with NCI-H226 lung, with OVCAR-5 ovarian and in the assay with TK-10 renal were 14.4 µM, greater than 66.8 µM and 35.1 µM, respectively.
As for `NC(CC(=O)OCc1ccccc1)C(=O)OCc1ccccc1` (centres undefined), the TGI in the assay with MCF7 breast, with COLO 205 colon, with EKVX NSCLC, with KM12 colon, with OVCAR-5 ovarian and with TK-10 renal was greater than 100 µM in each case.
On to `O=C(CCl)Nc1ccc(Cl)cc1`, for which the GI50 was 5.68 µM in the assay with OVCAR-4 ovarian; 1.78 µM with MCF7 breast; 1.98 µM with COLO 205 colon; 6.93 µM in the assay on EKVX NSCLC; 6.67 µM with HOP-92 NSCLC; 8.06 µM in the assay with KM12 colon. Also, the figures for the GI50 with NCI-H226 lung, in the assay on OVCAR-5 ovarian and in the assay with TK-10 renal were 4.17 µM, 3.57 µM and 2.3 µM, respectively. The total growth inhibition concentration (TGI) is 25.3 µM in the assay on OVCAR-4 ovarian; 4.54 µM in the assay on MCF7 breast; 3.61 µM in the assay with COLO 205 colon; 26.3 µM with EKVX NSCLC; 20.7 µM with HOP-92 NSCLC; 21 µM in the assay on KM12 colon. In addition, the TGI was 15.7 µM in the assay with NCI-H226 lung, 12.9 µM in the assay with OVCAR-5 ovarian and 5.75 µM in the assay with TK-10 renal.
Regarding `CCN1C(=O)CNc2ncc(-c3ccc(-c4ncn[nH]4)nc3C)nc21`, the GI50 in the assay with OVCAR-4 ovarian was 0.103 µM; with MCF7 breast, 0.051 µM; in the assay on COLO 205 colon it was 0.16 µM; with EKVX NSCLC, 0.188 µM; with HOP-92 NSCLC, 0.0212 µM; with KM12 colon it was 0.193 µM. Also, the GI50 was 0.128 µM in the assay on NCI-H226 lung, 0.169 µM with OVCAR-5 ovarian and 0.0833 µM with TK-10 renal. For the same compound, the TGI was determined as 1.13 µM in the assay on OVCAR-4 ovarian; 10.7 µM in the assay on MCF7 breast; 1.72 µM in the assay with COLO 205 colon; 5.77 µM in the assay on EKVX NSCLC; 0.168 µM in the assay with HOP-92 NSCLC; 11.3 µM in the assay on KM12 colon. Further, the TGI turned out to be 6.44 µM in the assay with NCI-H226 lung, 8.96 µM in the assay on OVCAR-5 ovarian and 1.36 µM in the assay on TK-10 renal.
With `CCOC(=O)c1cc(/C(=N\O)c2cc(OC)c(OC)c(OC)c2)n2cc(C)cc(C)c12`, the GI50 is 1.95 µM with OVCAR-4 ovarian; 1.93 µM in the assay on MCF7 breast; 2.28 µM in the assay with HL-60(TB) leukemia; 3.83 µM in the assay on EKVX NSCLC; 2.26 µM in the assay with HOP-92 NSCLC; 2.31 µM in the assay on KM12 colon. In addition, the GI50 in the assay with TK-10 renal is 3.66 µM. Further, the TGI was 5.1 µM in the assay with OVCAR-4 ovarian; greater than 100 µM in the assay with MCF7 breast; 7.57 µM with HL-60(TB) leukemia; greater than 100 µM with EKVX NSCLC; 7.08 µM in the assay with HOP-92 NSCLC; greater than 100 µM in the assay with KM12 colon. The TGI in the assay with TK-10 renal came out at 51.3 µM.
With `Cc1ccc(/C(=C/C=C(C#N)C#N)Sc2ccc(Cl)cc2)cc1`, the GI50 in the assay on OVCAR-4 ovarian was 11.3 µM; with MCF7 breast, 5.24 µM; in the assay with COLO 205 colon, 7.58 µM; in the assay with EKVX NSCLC it was 22.3 µM; in the assay on HOP-92 NSCLC it was 15 µM; with KM12 colon it was 5.5 µM. Also, the GI50 was 11.4 µM in the assay on OVCAR-5 ovarian and 2.12 µM in the assay with TK-10 renal. Also, the TGI in the assay with OVCAR-4 ovarian was greater than 100 µM; in the assay on MCF7 breast, greater than 100 µM; in the assay with COLO 205 colon, 30.4 µM; with EKVX NSCLC, 49.4 µM; in the assay with HOP-92 NSCLC, 56.6 µM; in the assay on KM12 colon it was 26.7 µM. The TGI with OVCAR-5 ovarian turned out to be 25.5 µM; with TK-10 renal, 7.31 µM.

The values are drawn from PubChem BioAssay (NCI).
